This passage reports IC50 results from US20230159453A1 (COCRYSTAL PHARMA, INC., priority 2020, published 2023).

The assay concerns the target SARS2 protease (Severe acute respiratory syndrome coronavirus 2, UniProt P0DTD1). As to the kind of experiment: SARS-CoV-2 protease inhibition assay (SARS2 FRET protease assay). As to conditions: SARS-CoV-2 protease 25 nM, FRET, peptide substrate 1.3 μM, 30 minutes at 30° C., compounds 20 μM to 1.0 nM; read-out: IC50. It counts as biochemical.

For the molecule `CCOP(=O)(OCC)C(O)C(CC1CC2(CCN(C(C)=O)CC2)NC1=O)NC(=O)[C@H](CC(C)C)NC(=O)c1cc2ccccc2[nH]1` (stereo partly drawn) [Compound C94, Diethyl (2-((S)-2-(1H-indole-2-carboxamido)-4-methylpentanamido)-3-(8-acetyl-2-oxo-1,8-diazaspiro[4.5]decan-3-yl)-1-hydroxypropyl)phosphonate], the IC50 (in general, the concentration that inhibits the measured activity by half) was determined as 2600 nM.

Take `CCOP(=O)(OCC)C(O)C(CC1CC2(CCN(C(C)=O)CC2)NC1=O)NC(=O)[C@H](CC(C)C)NC(=O)OCC1CCC(F)(F)CC1` (stereo partly drawn) [Compound C95, (4,4-Difluorocyclohexyl)methyl ((2S)-1-((3-(8-acetyl-2-oxo-1,8-diazaspiro[4.5]decan-3-yl)-1-(diethoxyphosphoryl)-1-hydroxypropan-2-yl)amino)-4-methyl-1-oxopentan-2-yl)carbamate]: the IC50 stood at 7000 nM.

Turning to `CC(C)C[C@H](NC(=O)N(Cc1ccccc1)C1CCN(C(=O)OC(C)(C)C)CC1)C(=O)N[C@@H](C[C@@H]1CCNC1=O)C(=O)C(=O)NC1CC1` [Compound C98, Tert-butyl 4-(1-benzyl-3-((S)-1-(((S)-4-(cyclopropylamino)-3,4-dioxo-1-((S)-2-oxopyrrolidin-3-yl)butan-2-yl)amino)-4-methyl-1-oxopentan-2-yl)ureido)piperidine-1-carboxylate], the IC50 came out at 2200 nM.

For `CC(C)C[C@H](NC(=O)OC(Cc1ccccc1)c1ccccc1)C(=O)N[C@@H](C[C@@H]1CCNC1=O)C(=O)C(N)=O` (stereo partly drawn) [Compound C100, 1,2-Diphenylethyl ((S)-1-(((S)-4-amino-3,4-dioxo-1-((S)-2-oxopyrrolidin-3-yl)butan-2-yl)amino)-4-methyl-1-oxopentan-2-yl)carbamate], the IC50 amounted to 1000 nM.

In the case of `CC(C)C[C@H](NC(=O)OCC(C)(C)c1cccc(Cl)c1)C(=O)N[C@H](CO)C[C@@H]1CCNC1=O` [Compound C101, 2-(3-Chlorophenyl)-2-methylpropyl ((S)-1-(((S)-1-hydroxy-3-((S)-2-oxopyrrolidin-3-yl)propan-2-yl)amino)-4-methyl-1-oxopentan-2-yl)carbamate], the IC50 is more than 20000 nM.

On to `CC(=O)N1CC2(CC(CC(C=O)NC(=O)[C@H](CC(C)C)NC(=O)OCc3cccc(Cl)c3)C(=O)N2)C1` (stereo partly drawn) [Compound C102, 3-chlorobenzyl ((2S)-1-((1-(2-acetyl-6-oxo-2,5-diazaspiro[3.4]octan-7-yl)-3-oxopropan-2-yl)amino)-4-methyl-1-oxopentan-2-yl)carbamate], for which the IC50 came out at 118 nM.

Regarding `CC(C)(COC(=O)N[C@H](C(=O)N[C@H](C=O)C[C@@H]1CCNC1=O)C(C)(C)C)c1cccc(Cl)c1` [Compound C103, 2-(3-Chlorophenyl)-2-methylpropyl ((S)-3,3-dimethyl-1-oxo-1-(((S)-1-oxo-3-((S)-2-oxopyrrolidin-3-yl)propan-2-yl)amino)butan-2-yl)carbamate], the IC50 was determined as 736 nM.

As to `CC(C)C[C@H](NC(=O)OC(Cc1cccc(Cl)c1)c1ccccc1)C(=O)N[C@H](C=O)C[C@@H]1CCNC1=O` (stereo partly drawn) [Compound C104, 2-(3-Chlorophenyl)-1-phenylethyl ((S)-4-methyl-1-oxo-1-(((S)-1-oxo-3-((S)-2-oxopyrrolidin-3-yl)propan-2-yl)amino)pentan-2-yl) carbamate], the IC50 came to 6 nM.

With `CC(C)(c1cccc(Cl)c1)C(OC(=O)N[C@@H](CC1CCCCC1)C(=O)N[C@H](C=O)C[C@@H]1CCNC1=O)c1cccc(F)c1` (stereo partly drawn) [Compound C105, 2-(3-Chlorophenyl)-1-(3-fluorophenyl)-2-methylpropyl ((S)-3-cyclohexyl-1-oxo-1-(((S)-1-oxo-3-((S)-2-oxopyrrolidin-3-yl)propan-2-yl)amino)propan-2-yl)carbamate], the IC50 is 0.6 nM.

With `CC(C)(c1cccc(Cl)c1)C(OC(=O)N[C@@H](CC1CCCCC1)C(=O)N[C@H](C=O)C[C@@H]1CCNC1=O)c1cccc(Cl)c1` (stereo partly drawn) [Compound C106, 1,2-Bis(3-chlorophenyl)-2-methylpropyl ((S)-3-cyclohexyl-1-oxo-1-(((S)-1-oxo-3-((S)-2-oxopyrrolidin-3-yl)propan-2-yl)amino)propan-2-yl)carbamate], the IC50 is 0.1 nM.

With `CC(C)C[C@H](NC(=O)OCC1CCC(F)(F)CC1)C(=O)NC(C)(C=O)CC1CCNC1=O` (stereo partly drawn) [Compound C107, (4,4-Difluorocyclohexyl) methyl ((2S)-4-methyl-1-((2-methyl-1-oxo-3-(2-oxopyrrolidin-3-yl)propan-2-yl)amino)-1-oxopentan-2-yl) carbamate], the IC50 came out at 6790 nM.

Turning to `CC(C)C[C@H](NC(=O)OC(c1ccccc1)C(C)(C)c1cccc(Cl)c1)C(=O)N[C@H](C=O)C[C@@H]1CCNC1=O` (stereo partly drawn) [Compound C108, 2-(3-Chlorophenyl)-2-methyl-1-phenylpropyl ((S)-4-methyl-1-oxo-1-(((S)-1-oxo-3-((S)-2-oxopyrrolidin-3-yl)propan-2-yl)amino)pentan-2-yl) carbamate], the IC50 stood at 1.2 nM.

For `O=C[C@H](C[C@@H]1CCNC1=O)NC(=O)[C@H](CC1CCCCC1)NC(=O)OC(Cc1cccc(Cl)c1)c1ccccc1` (stereo partly drawn) [Compound C109, 2-(3-Chlorophenyl)-1-phenylethyl ((S)-3-cyclohexyl-1-oxo-1-(((S)-1-oxo-3-((S)-2-oxopyrrolidin-3-yl)propan-2-yl)amino)propan-2-yl)carbamate], the IC50 amounted to 2 nM.

Regarding `CC(C)(c1cccc(Cl)c1)C(OC(=O)N[C@@H](CC1CCCCC1)C(=O)N[C@H](C=O)C[C@@H]1CCNC1=O)c1ccccc1` (stereo partly drawn) [Compound C110, 2-(3-Chlorophenyl)-2-methyl-1-phenylpropyl ((S)-3-cyclohexyl-1-oxo-1-(((S)-1-oxo-3-((S)-2-oxopyrrolidin-3-yl)propan-2-yl)amino)propan-2-yl) carbamate], the IC50 was 1.4 nM.

Take `CC(C)(COC(=O)N[C@H](C(=O)N[C@@H](C[C@@H]1CCNC1=O)C(O)S(=O)(=O)O)C(C)(C)C)c1cccc(Cl)c1` (stereo partly drawn) [Compound C111, Sodium (2S)-2-((S)-2-(((2-(3-chlorophenyl)-2-methylpropoxy)carbonyl)amino)-3,3-dimethylbutanamido)-1-hydroxy-3-((S)-2-oxopyrrolidin-3-yl)propane-1-sulfonate]: the IC50 stood at 491 nM.

Consider `CC(=O)N1CCC2(CC1)CC(CC(NC(=O)[C@@H](CC1CCCCC1)NC(=O)c1cc3ccccc3[nH]1)C(=O)C(N)=O)C(=O)N2` (stereo partly drawn) [Compound C112, N-((2R)-1-((1-(8-acetyl-2-oxo-1,8-diazaspiro[4.5]decan-3-yl)-4-amino-3,4-dioxobutan-2-yl)amino)-3-cyclohexyl-1-oxopropan-2-yl)-1H-indole-2-carboxamide], for which the IC50 was 185 nM.

As for `CC(C)(c1cccc(Cl)c1)C(OC(=O)N[C@@H](CC1CCCCC1)C(=O)N[C@@H](C[C@@H]1CCNC1=O)C(=O)C(N)=O)c1ccccc1` (stereo partly drawn) [Compound C113, 2-(3-Chlorophenyl)-2-methyl-1-phenylpropyl ((S)-1-(((S)-4-amino-3,4-dioxo-1-((S)-2-oxopyrrolidin-3-yl)butan-2-yl)amino)-3-cyclohexyl-1-oxopropan-2-yl) carbamate], the IC50 came to 133 nM.

For the molecule `CC(C)C[C@H](NC(=O)OC(Cc1cccc(Cl)c1)c1ccccc1)C(=O)N[C@@H](C[C@@H]1CCNC1=O)C(O)S(=O)(=O)O` (stereo partly drawn) [Compound C114, Sodium (2S)-2-((2S)-2-(((2-(3-chlorophenyl)-1-phenylethoxy)carbonyl)amino)-4-methylpentanamido)-1-hydroxy-3-((S)-2-oxopyrrolidin-3-yl) propane-1-sulfonate], the IC50 worked out at 11.1 nM.

For the molecule `O=C(N[C@@H](CC1CCCCC1)C(=O)N[C@@H](C[C@@H]1CCNC1=O)C(O)S(=O)(=O)O)OC(Cc1cccc(Cl)c1)c1ccccc1` (stereo partly drawn) [Compound C115, Sodium (2S)-2-((2S)-2-(((2-(3-chlorophenyl)-1-phenylethoxy)carbonyl)amino)-3-cyclohexylpropanamido)-1-hydroxy-3-((S)-2-oxopyrrolidin-3-yl)propane-1-sulfonate], the IC50 worked out at 15.7 nM.

Take `NC(=O)C(=O)[C@H](C[C@@H]1CCNC1=O)NC(=O)[C@H](CC1CCCCC1)NC(=O)OC(Cc1cccc(Cl)c1)c1ccccc1` (stereo partly drawn) [Compound C116, 2-(3-Chlorophenyl)-1-phenylethyl ((S)-1-(((S)-4-amino-3,4-dioxo-1-((S)-2-oxopyrrolidin-3-yl)butan-2-yl)amino)-3-cyclohexyl-1-oxopropan-2-yl)carbamate]: the IC50 was 4840 nM.

For the molecule `COc1cccc2[nH]c(C(=O)N[C@@H](CC3CCCCC3)C(=O)NC(CC3CC4(CCN(C(C)=O)CC4)NC3=O)C(=O)C(N)=O)cc12` (stereo partly drawn) [Compound C117, N-((2S)-1-((1-(8-Acetyl-2-oxo-1,8-diazaspiro[4.5]decan-3-yl)-4-amino-3,4-dioxobutan-2-yl)amino)-3-cyclohexyl-1-oxopropan-2-yl)-4-methoxy-1H-indole-2-carboxamide], the IC50 stood at 55.3 nM.

For the molecule `CC(C)C(C)(C)C(NC(=O)OCc1ccccc1)C(=O)N[C@H](C=O)C[C@@H]1CCNC1=O` (stereo partly drawn) [Compound C118, Benzyl (3,3,4-trimethyl-1-oxo-1-(((S)-1-oxo-3-((S)-2-oxopyrrolidin-3-yl)propan-2-yl)amino)pentan-2-yl)carbamate], the IC50 turned out to be 868 nM.

Regarding `NC(=O)C(=O)C(CC1CC2(CCCCC2)NC1=O)NC(=O)[C@H](CC1CCCCC1)NC(=O)c1cc2ccccc2[nH]1` (stereo partly drawn) [Compound C119, N-((2S)-1-((4-amino-3,4-dioxo-1-(2-oxo-1-azaspiro[4.5]decan-3-yl)butan-2-yl)amino)-3-cyclohexyl-1-oxopropan-2-yl)-1H-indole-2-carboxamide], the half-inhibitory concentration (IC50) was determined as 796 nM.

With `CC(C)(c1cccc(Cl)c1)C(OC(=O)N[C@@H](CC1CCCCC1)C(=O)N[C@@H](C[C@@H]1CCNC1=O)C(=O)C(N)=O)c1cccc(F)c1` (stereo partly drawn) [Compound C120, 2-(3-Chlorophenyl)-1-(3-fluorophenyl)-2-methylpropyl ((S)-1-(((S)-4-amino-3,4-dioxo-1-((S)-2-oxopyrrolidin-3-yl)butan-2-yl)amino)-3-cyclohexyl-1-oxopropan-2-yl) carbamate], the IC50 came out at 1060 nM.
